According to PMC2723765 (Bioorganic & medicinal chemistry, 2009):
Where two headings read alike, the source gives them in different places. Values belong to the molecule of their own block, whether it stands above or below them.

How the values were obtained:
[1] = PET studies; type: in vivo, C57BL/6 mice; settings: co-injection with excess (50 μg) non-radioactive 4
[2] = biological target: CXCR4 (Mus musculus, UniProt P70658); settings: read-out: IC50 of ^64Cu-4 binding to mouse splenocytes; constant amount of ^64Cu-4 and increasing concentrations of non-radioactive 4, 1 h; average of three experiments
Sequence of CXCR4 (Mus musculus, UniProt P70658) (P70658 whole entry): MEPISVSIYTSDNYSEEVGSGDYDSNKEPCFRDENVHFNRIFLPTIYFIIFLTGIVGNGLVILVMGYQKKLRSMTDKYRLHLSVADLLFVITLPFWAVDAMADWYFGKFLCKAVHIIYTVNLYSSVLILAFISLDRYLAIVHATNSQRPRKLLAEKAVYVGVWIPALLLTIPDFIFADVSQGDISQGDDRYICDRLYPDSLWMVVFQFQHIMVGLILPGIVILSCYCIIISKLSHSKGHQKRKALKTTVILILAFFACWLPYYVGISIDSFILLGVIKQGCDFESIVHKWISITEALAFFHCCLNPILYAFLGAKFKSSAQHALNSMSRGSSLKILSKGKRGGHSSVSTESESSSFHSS

[3] = biological target: CXCR4 (Homo sapiens, UniProt P61073); test: Transwell migration assay of Jurkat cells towards SDF-1; type: cell-based; settings: SDF-1 in lower wells
Sequence of CXCR4 (Homo sapiens, UniProt P61073) (P61073 whole entry): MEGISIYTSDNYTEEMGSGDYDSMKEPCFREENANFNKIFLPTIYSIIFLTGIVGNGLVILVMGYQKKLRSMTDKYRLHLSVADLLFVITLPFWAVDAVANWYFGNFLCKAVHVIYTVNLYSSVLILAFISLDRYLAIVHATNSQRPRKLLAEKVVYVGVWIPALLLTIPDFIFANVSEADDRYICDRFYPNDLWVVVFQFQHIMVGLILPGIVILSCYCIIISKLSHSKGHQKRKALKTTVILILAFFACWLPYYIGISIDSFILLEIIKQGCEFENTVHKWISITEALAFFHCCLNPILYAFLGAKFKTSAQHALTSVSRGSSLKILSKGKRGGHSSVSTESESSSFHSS

[4] = cited from earlier work

- PET: uptake in spleen and liver after blocking [1]: undetectable levels
- IC50 [2]: 46.9 µM
- Uptake in BM (1 h post i.v. injection): 14 % ID/g
- Uptake in LN (1 h post i.v. injection): 10 % ID/g
- Uptake in blood (1 h post i.v. injection): 1.7 % ID/g
- Uptake in kidneys (1 h post i.v. injection): 10 % ID/g
- Uptake in liver (1 h post i.v. injection): 41 % ID/g
- Uptake in muscle (1 h post i.v. injection): 0.3 % ID/g
- Uptake in spleen (1 h post i.v. injection): 13 % ID/g
- Accumulation in blood (2 h post injection): < 1 % ID/g
- Accumulation in liver (2 h post injection): 49 % ID/g
- Change of accumulation in spleen, LN, liver and BM (6 h post injection): slight increase
- Change of accumulation in kidneys (co-injection of excess (50 μg) non-labeled 4): corresponding increase in accumulation
- Reduction of accumulation in liver (co-injection of excess (50 μg) non-labeled 4, 2 h): 79%
- Reduction of accumulation in liver (co-injection of excess (50 μg) non-labeled 4, 6 h): 74%
- Reduction of accumulation in all immune related organs (co-injection of excess (50 μg) non-labeled 4, versus accumulation after 2 or 6 h): 60–80%
Molecule: CC(=O)[O-].CC(=O)[O-].[64Cu+2].c1cc(CN2CCCNCCNCCCNCC2)ccc1CN1CCCNCCNCCCNCC1 [^64Cu-4, [^64Cu]-1′-{1,4-phenylenebis(methylene)}-bis{1,4,8,11-tetraaza-cyclotetradecane}copper acetate]

- Lowest concentration that induces maximal migration of Jurkat cells [3]: 100 ng/mL
Molecule: SDF-1: chemokine stromal cell-derived factor-1, native ligand for CXCR4

Molecule: ^99Tc- SDF-1: SDF-1 labeled with ^99Tc, imaging agent for myocardial infarction
- Accumulation in infarcted myocardium [4]: 0.6 % ID/g
- Accumulation in normal myocardium [4]: 0.1 % ID/g
